Experimental data taken from patent publication US10081609B2, “Compounds for inducing proliferation and differentiation of cells, and methods of use thereof” (The Broad Institute, Inc., priority 2013, dated 2018).
≈ marks a conversion by molar mass, not a printed value. Where “and” joins values, the source holds several entries; their conditions need not be identical. Equal entries are not always repeated. Where two headings read alike, the source gives them in different places.

How the values were obtained:
[1] = test system: human primary hepatocytes; experiment: High-throughput liver platform, primary screening: hepatocyte proliferation by automated high-content imaging (hepatocyte nuclei numbers); assay type: cell-based; details: for hit class in the high-throughput liver platform: human primary hepatocytes
Description: In order to avoid species-specific differences and cell line mutations, the screen was conducted with human primary hepatocytes. Traditionally, chemical screening on such cells has been hindered by their availability in large quantities as well as their rapid loss of viability and phenotype in vitro. Recent advances in cryopreservation technologies allowed enough primary human cells to be stored for screening; these cells are maintained through co-cultivation with non-parenchymal cells. Co-cultures of primary human hepatocytes with murine embryonic J2-3T3 fibroblasts were recently shown to maintain normal hepatocyte phenotype for weeks. These in vitro platforms consisted of hepatocytes surrounded by a co-planar population of fibroblasts. While sufficient for stabilizing hepatocyte functions in vitro, such platforms may limit normal hepatocyte expansion due to contact inhibition. Thus, for this screen, a sparse population of hepatocytes was co-cultivated on top of a confluent feeder layer of J2-3T3 fibroblasts within 384-well plates (FIG. 1A top). This screening platform stabilized hepatocyte phenotypic functions in vitro (FIG. 1A bottom) and was compatible with two separate high-throughput readouts developed for this screen.
The primary readout detected hepatocyte proliferation via automated high-content imaging. This assay quantified hepatocyte nuclei numbers, using nuclear morphologies to separate the hepatocyte and fibroblast subpopulations that co-exist within the screening platform. When visualized with Hoechst stain, hepatocyte nuclei were smaller and more uniform in texture while fibroblast nuclei were larger and punctated (FIG. 1A bottom). Leveraging this distinction, automated image analyses was developed that utilized machine learning algorithms to classify nuclei types and tabulate hepatocyte nuclei numbers. […] Besides quantifying hepatocyte nuclei that have completed mitosis, the number of nuclei in the process of mitosis were also quantified. Two additional analysis pipelines were built to detect nuclear morphologies consistent with cells undergoing metaphase and anaphase.
FIG. 1B top summarizes the workflow of the screen. Primary screening was done on human primary hepatocytes, preconditioned for seven days by non-parenchymal cells in the screening platform. Upon stabilization in vitro, cultures were treated with the chemical library for 48 hours. All compounds were tested in duplicates, at a single concentration of 15 μM. This single concentration was selected via a pilot screen of ˜2,000 small molecules. All 12,480 small molecules were initially tested on a single donor of cryopreserved hepatocytes (donor a) in order to eliminate noise from donor-to-donor variability. Following compound treatment, media supernatants were collected for functional analyses via ELISA and cultures were fixed in 4% paraformaldehyde for proliferation analyses via imaging.
To identify proliferation hits, three image-based readouts—one each to quantify the number of (1) hepatocyte nuclei in interphase, (2) nuclei in metaphase and (3) nuclei in anaphase—were integrated. z Scores were converted into p values, which were then used to generate ranked lists of compounds based on the efficacy and consistency of effects across the different proliferation readouts. Efficacy was assessed by the product of p values (pprod=pinter×pmeta×pana); consistency was evaluated by the maximum of p values (pmax=max(pinter, pmeta, pana). Compounds were considered proliferation hits if pprod<1×10^−6 and pmax<0.25. Functional hits were selected by an ELISA […]. Compounds with ELISA z>3.0 were eliminated as toxic. 93 compounds met all hit selection criteria, qualifying as Functional Proliferation Hits (FPH); FIG. 1B bottom illustrates the types of compounds that constituted this set of hits.

[2] = Solubility in PBS with 1% DMSO; assay type: physicochemical
Description: (§1) Selected compounds of the invention were evaluated for physico-chemical properties, including solubility, microsomal stability, protein binding and plasma stability (Table 2).
(§2) Selected compounds of the invention were evaluated for physico-chemical properties, including solubility, microsomal stability, protein binding and plasma stability (Table 3).

Protein binding - Human = assay type: in vitro ADME
Description: as §1, §2

[3] = Microsomal stability - Human; assay type: in vitro ADME; details: for Microsomal stability No NADPH: non-enzymatic microsomal mechanisms only; for Microsomal stability Average: enzymatic and non-enzymatic microsomal mechanisms
Description: as §1, §2

Plasma stability - Human = assay type: in vitro ADME
Description: as §1, §2

iHeps = experiment: Differentiation and maturation of iHeps (albumin/AFP ELISA, staining, CYP3A4 activity); assay type: cell-based, human
Description: Undifferentiated iPS cells were cultured on Matrigel, supported by primary mouse embryonic fibroblasts. Once confluent, iPS cells were transitioned to differentiation media, with sequential addition of growth factors (Activin A, BMP-4, bFGF, HGF, and OSM) to guide differentiation, first into endoderm, then into hepatic progenitor cells and finally into iHeps. Compound treatment started on day 21 post initiation of differentiation and acted over a period of 9 days.
Consistent with the literature, untreated cultures had islands that double stain for albumin and the fetal marker AFP, with very little presence of the mature marker […].
The ability of compounds 201-212, 217 and 244-258 to affect the differentiation of iHeps was also tested.

[4] = test system: human primary hepatocytes; experiment: Expansion of compound-treated human primary hepatocytes (cell counts, Ki67 staining); assay type: cell-based; details: FIG. 11A
Description: The metabolic phenotype of the treated hepatocytes was assessed for canalicular transport. […] Gene expression profiling confirmed that there was no significant differences between FPH-treated and untreated hepatocytes (FIG. 11D).
The ability of compounds 201-212, 215, 217 and 244-258 to expand human primary hepatocytes in vitro was also tested.

[5] = test system: lfabp:GFP zebrafish embryos; experiment: Therapeutic window after a non-fatal dose of APAP in zebrafish embryos (liver size); assay type: in vivo; details: 5 mM APAP for 24 hrs before 24 hour treatment
Description: The current clinical treatment for APAP toxicity is the administration of NAC, which has a limited window of efficacy. To examine the therapeutic window of FH1 and PH1 efficacy, lfabp:GFP zebrafish embryos were allowed to develop normally for 48 hrs post fertilization, and then exposed to a non-fatal dose of 5 mM APAP for 24 hrs before initiation of treatment with FH1 or PH1 for an additional 24 hour period (FIG. 10A).

[6] = test system: iPS-derived endothelial cells; experiment: Differentiation of iPS-derived endothelial cells (nitric oxide); assay type: cell-based
Description: Cells were assayed for nitric oxide (NO), a mature marker for endothelial cells. CB=FPH2, M=FH1, E=PH1, while Null and DMSO are control runs with no additive and vehicle only, respectively.

[7] = test system: transgenic lfabp:GFP zebrafish; experiment: Liver development in transgenic lfabp:GFP zebrafish embryos; assay type: in vivo; details: exposure 24 to 72 hrs post fertilization
Excerpt: The effects of FH1 and PH1 on liver development were examined in transgenic lfabp:GFP zebrafish, in which GFP expression is restricted to the liver. Zebrafish embryos were allowed to develop normally for 24 hrs post fertilization and then exposed to either FH1 or PH1 until 72 hrs post fertilization (FIG. 8A). Livers were visualized by whole-mount fluorescence imaging (FIG. 8B) and lfabp in situ hybridization (FIG. 8C).

[8] = aqueous buffer, kinetic from dmso stock, read-out: Solubility Average
[9] = aqueous buffer, kinetic from dmso stock, read-out: Solubility Rep1
[10] = aqueous buffer, kinetic from dmso stock, read-out: Solubility Rep2
[11] = aqueous buffer, kinetic from dmso stock, read-out: Solubility Rep3

Compound	solubility [2, 8] [µM]	solubility [2, 9] [µM]	solubility [2, 10] [µM]	solubility [2, 11] [µM]	Protein binding Average (Protein binding - Human) [% bound]	Protein binding Rep1 (Protein binding - Human) [% bound]	Protein binding Rep2 (Protein binding - Human) [% bound]	Microsomal stability Rep1 [3] [% remaining]	Microsomal stability Rep2 [3] [% remaining]	Microsomal stability No NADPH [3] [% remaining]	Microsomal stability Average [3] [% remaining]	Plasma stability Average (Plasma stability - Human)	also measured
CSc1ccccc1NC(=O)CN(c1cc(Cl)ccc1C)S(C)(=O)=O [Compound 102, 2-(N-(5-chloro-2-methylphenyl)methylsulfonamido)-N-(2-(methylthio)phenyl)acetamide]													proliferation Z score (hepatocyte nuclei count) [1]: 2.24; hit class in the high-throughput liver platform [1]: proliferation-only hit
CCCCOc1cc(CC2CNC(=O)N2)ccc1OC (stereo not drawn) [BRD-A07207424-001-04-1]	> 100	112 (≈ 31.2 µg/mL)	114 (≈ 31.7 µg/mL)	104 (≈ 28.9 µg/mL)	75.6	76.2	75.0	81.5	85.5	100.3	83.5	105.9 % remaining	
CCCCC[C@H](O)/C=C/[C@H]1[C@H](O)CC(=O)[C@@H]1C/C=C\CCCC(=O)O [PGE2, Prostaglandin E2, reference compound]													hit class in the high-throughput liver platform [1]: FPH
Cc1ccc(Cl)cc1N(CC(=O)N(S)c1c(F)cccc1F)S(C)(=O)=O [BRD-K61250484-001-01-5]	23 (≈ 9.68 µg/mL)	23 (≈ 9.68 µg/mL)	22 (≈ 9.26 µg/mL)	26 (≈ 10.9 µg/mL)	91.2	90.9	91.6	4.2	4.5	110.6	4.4	101.4 % remaining	
CC(=O)Nc1ccc(Cc2ccc(NC(C)=O)cc2)cc1 [BRD-K44777625-001-01-9]	40 (≈ 11.3 µg/mL)	45 (≈ 12.7 µg/mL)	39 (≈ 11 µg/mL)	36 (≈ 10.2 µg/mL)	91.0	91.0	91.0	71	66.7	63	68.9	100.6 % remaining	
CCn1cc(NC(=S)Nc2cc(Cl)ccc2OC)c(C(N)=O)n1 [BRD-K94248251]	20 (≈ 7.08 µg/mL)	23 (≈ 8.14 µg/mL)	16 (≈ 5.66 µg/mL)	21 (≈ 7.43 µg/mL)	95.8	95.7	95.9	41.7	39.4	123.1	40.6	63.9 % remaining	
C[C@H](CO)N1C[C@H](C)[C@H](CN(C)C(=O)Nc2ccc(F)cc2)Oc2ncc(-c3cc4ccccc4o3)cc2C1=O [Compound 106, 1-(((2R,3S)-8-(benzofuran-2-yl)-5-((R)-1-hydroxypropan-2-yl)-3-methyl-6-oxo-3,4,5,6-tetrahydro-2H-pyrido[2,3-b][1,5]oxazocin-2-yl)methyl)-3-(4-fluorophenyl)-1-methylurea]	25 (≈ 13.7 µg/mL)	23 (≈ 12.6 µg/mL)	28 (≈ 15.3 µg/mL)	24 (≈ 13.1 µg/mL)	99.3	99.3	99.3	53.9	58.1	104.2	56.0	98.0 % remaining	albumin staining (immunofluorescent) (iHeps): dramatic increases; hepatocyte phenotype of treated iHeps (iHeps): more mature hepatocyte phenotypes; AFP secretion (ELISA) (iHeps; treatment from day 21, 9 days): decreased; albumin secretion (ELISA) (iHeps; treatment from day 21, 9 days): increased; proliferation of hepatocytes [4]: induced proliferation
Clc1ccccc1C(c1ccccc1)(c1ccccc1)n1ccnc1 [Clotrimazole, reference compound]	2.2 (≈ 0.759 µg/mL)		1.9 (≈ 0.655 µg/mL)	3.1 (≈ 1.07 µg/mL)									solubility ([2]; read-out: Solubility Average): 2.6 µM (≈ 0.897 µg/mL); solubility ([2]; read-out: Solubility Rep2): 2.1 µM (≈ 0.724 µg/mL); solubility ([2]; read-out: Solubility Rep3): 2.0 µM (≈ 0.69 µg/mL)
CCCCOc1cc(CC2CNC(=O)N2)ccc1OC (stereo not drawn) [PH1, 4-(3-butoxy-4-methoxybenzyl)imidazolidin-2-one]													embryonic liver size / liver mass after APAP compared to controls [5]: mitigated APAP-induced loss of liver mass; differentiation of iPS-derived endothelial cells (nitric oxide) [6]: induce differentiation; liver size compared to DMSO-treated controls [7]: increased
CC1CC(OC(=O)C(O)c2ccccc2)CC(C)(C)N1C (stereo not drawn) [Eucatropine, reference compound]												0.5 % remaining and 0.4 % remaining	
